# Measured values as given in US7902252B2, “Inhibitors of D-amino acid oxidase” (Sepracor, Inc., priority 2007, dated 2011).
# Target: Human DAAO (Homo sapiens, UniProt P14920)
# Assay: D-Amino Acid Oxidase enzyme assay (D-serine, horseradish peroxidase/Amplex Red coupled fluorescence)
# Type: biochemical
# Settings: D-serine 5 mM, pH 7.4
# Procedure: DAAO enzyme activity was measured using the substrate D-serine at its Michaelis-Menton Km of 5 mM. The rate of oxidation is measured as a rate of production of hydrogen peroxide, which was detected using the enzyme horseradish peroxidase (Sigma cat. No. P-8375). This coupled reaction uses the enzyme substrate Amplex Red (Molecular Probes), which is converted to the fluorescent reaction product, resorufin (excitation 530-560 nm; emission ˜590 nm). Although DAAO has a higher pH optimum, all reagents were prepared in 50 mM sodium phosphate buffer at pH 7.4 and inhibition curves were generated at this pH.
# The final concentrations of components in 200 μl total volume per well (black clear-bottom 96-well plate, Costar) were:
# (a) Horseradish peroxidase: 4 Units per mL
# (d) Amplex Red reagent: 50 uM
# The reactions were initiated by addition of DAAO enzyme and the fluorescence was monitored. H2O2 was added at 16 uM final concentration to a control well on each plate to test for compound interference with a coupled enzyme. Inhibition curves were generated in the presence of varying concentrations of the inhibitor and IC50 values were calculated for each inhibitor.
# Sequence of Human DAAO (P14920 whole entry): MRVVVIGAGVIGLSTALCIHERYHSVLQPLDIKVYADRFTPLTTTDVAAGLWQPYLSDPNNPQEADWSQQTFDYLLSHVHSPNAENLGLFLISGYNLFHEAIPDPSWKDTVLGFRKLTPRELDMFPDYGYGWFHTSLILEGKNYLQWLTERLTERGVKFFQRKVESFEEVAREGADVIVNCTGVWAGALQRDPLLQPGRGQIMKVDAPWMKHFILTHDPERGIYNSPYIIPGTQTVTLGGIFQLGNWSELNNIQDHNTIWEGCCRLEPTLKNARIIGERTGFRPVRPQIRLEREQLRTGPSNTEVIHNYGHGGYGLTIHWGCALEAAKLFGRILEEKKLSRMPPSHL
row,Structure (SMILES),IC50 [µM]
1,"CC1Cc2cc(C(=O)O)[nH]c2C1 (centres unmarked) [Compound 22, 5-methyl-1,4,5,6-tetrahydrocyclopenta[b]pyrrole-2-carboxylic acid]",≤ 1
2,"O=C(O)c1cc2c([nH]1)CCC2Cc1ccc(F)cc1 (single isomer, unassigned) [Compound 40, 4-(4-fluorobenzyl)-1,4,5,6-tetrahydrocyclopenta[b]pyrrole-2-carboxylic acid]",≤ 0.1
3,"O=C(O)c1cc2c([nH]1)CCC2c1ccc(Cc2ccccc2)cc1 (centres unmarked) [Compound 107, 4-(4-benzylphenyl)-1,4,5,6-tetrahydrocyclopenta[b]pyrrole-2-carboxylic acid]",≤ 1
4,"O=C(O)c1cc2c([nH]1)CCC2Cc1ccc(Br)cc1 (single isomer, unassigned) [Compound 61, 4-(4-bromobenzyl)-1,4,5,6-tetrahydrocyclopenta[b]pyrrole-2-carboxylic acid]",≤ 100
5,"O=C(O)c1cc2c([nH]1)CCC2CCCc1ccccc1 (centres unmarked) [Compound 36, 4-(3-phenylpropyl)-1,4,5,6-tetrahydrocyclopenta[b]pyrrole-2-carboxylic acid]",≤ 1
6,"O=C(O)c1cc2c([nH]1)CCC2c1ccc(Cl)cc1 (centres unmarked) [Compound 101, 4-(4-chlorophenyl)-1,4,5,6-tetrahydrocyclopenta[b]pyrrole-2-carboxylic acid]",≤ 0.1
7,"COc1cccc(CC2CCc3cc(C(=O)O)[nH]c32)c1 (racemic) [Compound 129, 6-(3-methoxybenzyl)-1,4,5,6-tetrahydrocyclopenta[b]pyrrole-2-carboxylic acid]",≤ 0.1
8,"O=C(O)c1cc2c([nH]1)CC/C2=C\c1ccc(F)cc1 [Compound 13, (E)-4-(4-fluorobenzylidene)-1,4,5,6-tetrahydrocyclopenta[b]pyrrole-2-carboxylic acid]",≤ 100
9,"O=C(O)c1cc2c([nH]1)C(c1cccc(F)c1)CC2 (centres unmarked) [Compound 111, 6-(3-fluorophenyl)-1,4,5,6-tetrahydrocyclopenta[b]pyrrole-2-carboxylic acid]",≤ 1
10,"O=C(O)c1cc2c([nH]1)CCC2Cc1ccc(Cl)c(Cl)c1 (single isomer, unassigned) [Compound 58, 4-(3,4-dichlorobenzyl)-1,4,5,6-tetrahydrocyclopenta[b]pyrrole-2-carboxylic acid]",≤ 100
11,"O=C(O)c1cc2c([nH]1)CCC2Cc1cccc(-c2cccnc2)c1 (centres unmarked) [Compound 83, 4-(3-(pyridin-3-yl)benzyl)-1,4,5,6-tetrahydrocyclopenta[b]pyrrole-2-carboxylic acid]",≤ 1
12,"O=C(O)c1cc2c([nH]1)C(Cc1cccc(Br)c1)CC2 (single isomer, unassigned) [Compound 126, 6-(3-bromobenzyl)-1,4,5,6-tetrahydrocyclopenta[b]pyrrole-2-carboxylic acid]",≤ 100
13,"O=C(O)c1cc2c([nH]1)C(CCc1ccccc1)CC2 (single isomer, unassigned) [Compound 29, 6-phenethyl-1,4,5,6-tetrahydrocyclopenta[b]pyrrole-2-carboxylic acid]",≤ 100
14,"O=C(O)c1cc2c([nH]1)C(c1ccc(-c3ccccc3)cc1)CC2 (racemic) [Compound 118, 6-(biphenyl-4-yl)-1,4,5,6-tetrahydrocyclopenta[b]pyrrole-2-carboxylic acid]",≤ 1
15,"O=C(O)c1cc2c([nH]1)C(CCCc1ccccc1)CC2 (racemic) [Compound 134, 6-(3-phenylpropyl)-1,4,5,6-tetrahydrocyclopenta[b]pyrrole-2-carboxylic acid]",≤ 1
16,"O=C(O)c1cc2c([nH]1)CC(Cc1ccccc1)C2 (centres unmarked) [Compound 23, 5-benzyl-1,4,5,6-tetrahydrocyclopenta[b]pyrrole-2-carboxylic acid]",≤ 100
17,"CCCC1CCc2[nH]c(C(=O)O)cc21 (racemic) [Compound 7, 4-propyl-1,4,5,6-tetrahydrocyclopenta[b]pyrrole-2-carboxylic acid]",≤ 0.1
18,"O=C(O)c1cc2c([nH]1)C(CCCc1ccccc1)CC2 (single isomer, unassigned) [Compound 135, 6-(3-phenylpropyl)-1,4,5,6-tetrahydrocyclopenta[b]pyrrole-2-carboxylic acid]",≤ 100
19,"O=C(O)c1cc2c([nH]1)CCC2Cc1ccc(Br)cc1 (racemic) [Compound 60, 4-(4-bromobenzyl)-1,4,5,6-tetrahydrocyclopenta[b]pyrrole-2-carboxylic acid]",≤ 0.1
20,"CC1CCc2cc(C(=O)O)[nH]c21 (centres unmarked) [Compound 109, 6-methyl-1,4,5,6-tetrahydrocyclopenta[b]pyrrole-2-carboxylic acid]",≤ 1

# The remaining lines, values ahead:
row,IC50 [µM],Structure (SMILES)
1,≤ 100,"Cc1cc(C)cc(CC2CCc3[nH]c(C(=O)O)cc32)c1 (centres unmarked) [Compound 72, 4-(3,5-dimethylbenzyl)-1,4,5,6-tetrahydrocyclopenta[b]pyrrole-2-carboxylic acid]"
2,≤ 100,"Cc1c(C(=O)O)[nH]c2c1C(=O)CCC2 [Compound 31, 3-methyl-4-oxo-4,5,6,7-tetrahydro-1H-indole-2-carboxylic acid]"
3,≤ 100,"O=C(O)c1cc2c([nH]1)CCC2CC(F)(F)F (centres unmarked) [Compound 38, 4-(2,2,2-trifluoroethyl)-1,4,5,6-tetrahydrocyclopenta[b]pyrrole-2-carboxylic acid]"
4,≤ 100,"O=C(O)c1cc2c([nH]1)CCC2Cc1cccc(-c2ccco2)c1 (single isomer, unassigned) [Compound 88, 4-(3-(furan-2-yl)benzyl)-1,4,5,6-tetrahydrocyclopenta[b]pyrrole-2-carboxylic acid]"
5,≤ 100,"O=C(O)c1cc2c([nH]1)CCC2=O [Compound 2, 4-oxo-1,4,5,6-tetrahydrocyclopenta[b]pyrrole-2-carboxylic acid]"
6,≤ 1,"O=C(O)c1cc2c([nH]1)C(c1ccc(Cl)cc1)CC2 (centres unmarked) [Compound 113, 6-(4-chlorophenyl)-1,4,5,6-tetrahydrocyclopenta[b]pyrrole-2-carboxylic acid]"
7,≤ 0.1,"O=C(O)c1cc2c([nH]1)CCC2Cc1ccc(Cl)c(Cl)c1 (racemic) [Compound 57, 4-(3,4-dichlorobenzyl)-1,4,5,6-tetrahydrocyclopenta[b]pyrrole-2-carboxylic acid]"
8,≤ 1,"O=C(O)c1cc2c([nH]1)C(c1cccc(Br)c1)CC2 (centres unmarked) [Compound 115, 6-(3-bromophenyl)-1,4,5,6-tetrahydrocyclopenta[b]pyrrole-2-carboxylic acid]"
9,≤ 1,"O=C(O)c1cc2c([nH]1)CCC2Cc1ccc(-c2ccccc2)cc1 (centres unmarked) [Compound 81, 4-(biphenyl-4-ylmethyl)-1,4,5,6-tetrahydrocyclopenta[b]pyrrole-2-carboxylic acid]"
10,≤ 100,"O=C(O)c1cc2c([nH]1)CCC2c1cccc(F)c1 (single isomer, unassigned) [Compound 95, 4-(3-fluorophenyl)-1,4,5,6-tetrahydrocyclopenta[b]pyrrole-2-carboxylic acid]"
11,> 100,"O=C(O)c1cc2c([nH]1)C(c1ccc(-c3ccccc3)cc1)CC2 (single isomer, unassigned) [Compound 120, 6-(biphenyl-4-yl)-1,4,5,6-tetrahydrocyclopenta[b]pyrrole-2-carboxylic acid]"
12,≤ 1,"Cc1ccc(C2CCc3cc(C(=O)O)[nH]c32)cc1 (centres unmarked) [Compound 116, 6-p-tolyl-1,4,5,6-tetrahydrocyclopenta[b]pyrrole-2-carboxylic acid]"
